Results reported in patent publication US20180235942A1 (priority 2015, published 2018).
Where two headings read alike, the source gives them in different places.

Assays:
[1] = system: healthy, male and female subjects; assay: Driving performance study, real driving on the road after evening or middle-of-the-night dosing; type: in vivo, human; conditions: for effect on driving: gaboxadol 15 mg; for effect on memory test, body sway, DSST or critical tracking: in vivo
Source text: The study participants included healthy, male and female subjects between 21 and 45 years of age, with a valid drivers license for at least 3 years.
Following a cognitive and psychomotor test battery, the driving test started at 9 am and lasted for one hour.

[2] = system: healthy elderly male and female subjects; design: species or system human; conditions: in vivo, po
insomnia = conditions: three-month efficacy study; cited from earlier work
[3] = system: patients with a history of drug abuse; conditions: cited from earlier work
[4] = system: healthy adults subjected to a 5-hour sleep restriction; assay: Daytime performance after 5-hour sleep restriction (MSLT, SWS, KSS); type: in vivo, human
Method: The study included a 2-night single-blind placebo run-in period, a 4-night double-blind treatment period during which sleep was restricted to 5 hours and a 2-night single-blind placebo run-out period. The study included healthy male and female volunteers 18 to <55 years of age.
The primary endpoints included observations based on the Multiple Sleep Latency Test (MSLT) and Slow Wave Sleep (SWS) assessment.

clinical = conditions: both, human, in vivo
[5] = system: normal healthy adult subjects; assay: Intravenous and oral tolerability and safety in healthy adult subjects; type: in vivo, human
Source text: There was a washout of 4 days between each treatment period.
The study included healthy, male and female subjects between 18 and 45 years of age within 30% of ideal weight. The subjects in Part 1 of the study could be of either gender, but within Part 2 of the study there had to be at least 4 subjects of each gender.

[6] = middle-of-the-night administration, zolpidem 10 mg

For `Cc1ccc(-c2nc3ccc(C)cn3c2CC(=O)N(C)C)cc1` [zolpidem], the effect on driving [1, 6] was “numerically greater effect”.

In the case of `CN1CCN(C(=O)OC2c3nccnc3C(=O)N2c2ccc(Cl)cn2)CC1` (stereo not shown) [zopiclone], the effect on driving ([1]; evening dose, zopiclone 7.5 mg) is reported as “numerically greater effect” and the “effect on memory test, body sway, DSST or critical tracking” value [1] is reported as “had effect on several of these tests”.

For `CCN(CC)CCN1C(=O)CN=C(c2ccccc2F)c2cc(Cl)ccc21` [Flurazepam], the “residual effect on Choice Reaction Time and Critical Flicker Fusion” value [2] was “showed significant effect”.

In the case of `Oc1noc2c1CCNC2` [gaboxadol, 4,5,6,7-tetrahydroisoxazolo [5,4-c]pyridine-3-ol], the “effects in sleep onset and sleep maintenance” value (insomnia) is given as “failed to show significant effects”, the psychiatric adverse events [3] is given as “steep increase in psychiatric adverse events” and the “daytime sleepiness versus placebo (MSLT)” value ([4]; 15 mg, Sleep Restriction period, p=0.047, 1 sided) is given as “significantly less daytime sleepiness”. For the same compound, the “MSLT, longer than placebo on average” value ([4]; 15 mg, last two Sleep Restriction days) was 2.01 min, the “slow wave sleep (SWS) versus placebo” value ([4]; Sleep Restriction period, p<0.001, 1 sided) was “significantly more SWS” and the “biophysiological measures of stress (heart rate variability, cortisol levels, catecholamine levels, body temperature) versus placebo” value ([4]; in vivo) was “no differences”. The “daytime performance, neurocognitive battery effect sizes” value ([4]; in vivo) was “no strong evidence that gaboxadol improves daytime performance”, the “Karolinska Sleepiness Score (KSS), less than placebo on average” value ([4]; last two Sleep Restriction days, p=0.058, 1 sided, LDA model) was 0.68 and the “SWS, longer than placebo on average” value ([4]; last two Sleep Restriction nights) was 20.53 min. For the same compound, the tolerability ([1]; evening and middle-of-the-night dose) was “well tolerated”, the “effect on driving compared with 0.05% blood alcohol concentration” value ([1]; evening dose, 15 mg) was “less than the effect observed at a 0.05% blood alcohol concentration” and the effect on driving ([1]; evening dose, zopiclone 7.5 mg) was “statistically significant effect”. For the same compound, the “most frequent adverse events” value ([1]; evening treatment) was “headache and somnolence”, the “effect on memory test, body sway, DSST or critical tracking” value [1] was “no effect” and the effect on driving [1, 6] was “clinically relevant impairing effect”. For the same compound, the “most frequent adverse events” value ([1]; middle-of-the-night treatment) was “dizziness, nausea and somnolence”, the bioavailability (clinical) was 92% and the “residual effect on Choice Reaction Time and Critical Flicker Fusion” value [2] was “did not show residual effect”. For the same compound, the “residual effects on other measurements (MSLT, DSST, Tracking, Memory tests, Body Sway, Leeds Sleep Evaluation Questionnaire)” value [2] was “did not show any signs of residual effects”, the “Renal clearance (CLR)” value (human, in vivo) was “greater than glomerular filtration rate” and the “steady-state volume of distribution (Vss)” value (human, in vivo, iv) was “moderate”. The “systemic clearance (CL)” value (human, in vivo, iv) was “moderate”, the “AUC0-inf and Cmax versus dose” value (oral administration) was “increased with increasing dose” and the “AUC0-inf and Cmax versus dose” value (single intravenous doses) was “increased with increasing dose”. The “most common clinical adverse experiences” value ([5]; both parts of the study) was “somnolence and dizziness”, the serious adverse experiences ([5]; both parts of the study) was “no serious adverse experiences reported” and the tolerability ([5]; single intravenous doses of 5 and 10 mg, single oral doses from 2.5 to 20 mg) was “generally well tolerated”.
